Laboratory results reported in PMC9765439, “Systems-Wide Dissection of Organic Acid Assimilation in Pseudomonas aeruginosa Reveals a Novel Path To Underground Metabolism” (mBio, 2022).

What was measured:
[1] = biological target: T1, GltAPa (citrate synthase) (Pseudomonas aeruginosa, UniProt P14165); assay: DTNB (TNB release) spectrophotometric assay, […] nm; format: biochemical; conditions: 0.5 mM oxaloacetate; 50 mM HEPES pH 7.5, 0.1 M KCl, 0.54 M glycerol; 37 °C
T1 construct: gene gltA; full-length ORF, 429 aa; pET-19m, N-terminal TEV-cleavable His6 tag, cut; E. coli host; hexamer in asymmetric unit
T1 sequence (P14165 1-428): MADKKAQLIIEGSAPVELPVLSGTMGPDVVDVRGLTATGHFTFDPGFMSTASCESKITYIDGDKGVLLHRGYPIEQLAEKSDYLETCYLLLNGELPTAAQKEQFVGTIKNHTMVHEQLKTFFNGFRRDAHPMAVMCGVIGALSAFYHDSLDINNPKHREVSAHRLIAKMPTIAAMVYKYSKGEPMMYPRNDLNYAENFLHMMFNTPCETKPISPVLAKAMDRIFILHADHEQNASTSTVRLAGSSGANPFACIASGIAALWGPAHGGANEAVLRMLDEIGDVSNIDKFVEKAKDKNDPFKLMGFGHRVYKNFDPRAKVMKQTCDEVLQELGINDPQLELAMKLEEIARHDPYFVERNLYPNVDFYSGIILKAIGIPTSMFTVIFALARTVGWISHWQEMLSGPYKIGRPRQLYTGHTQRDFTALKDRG

[2] = biological target: T2, PrpCPa (2-methylcitrate synthase, 2-MCS) (Pseudomonas aeruginosa, UniProt Q9I5E3); assay: X-ray crystallography; format: binding; conditions: 2.5 mM oxaloacetate in crystallisation, Bis-Tris pH 5.5; active site of chain D only
T2 construct: gene prpC; pET-19m, N-terminal TEV-cleavable His6 tag, cut; E. coli host; homodimer
T2 sequence (Q9I5E3 1-375): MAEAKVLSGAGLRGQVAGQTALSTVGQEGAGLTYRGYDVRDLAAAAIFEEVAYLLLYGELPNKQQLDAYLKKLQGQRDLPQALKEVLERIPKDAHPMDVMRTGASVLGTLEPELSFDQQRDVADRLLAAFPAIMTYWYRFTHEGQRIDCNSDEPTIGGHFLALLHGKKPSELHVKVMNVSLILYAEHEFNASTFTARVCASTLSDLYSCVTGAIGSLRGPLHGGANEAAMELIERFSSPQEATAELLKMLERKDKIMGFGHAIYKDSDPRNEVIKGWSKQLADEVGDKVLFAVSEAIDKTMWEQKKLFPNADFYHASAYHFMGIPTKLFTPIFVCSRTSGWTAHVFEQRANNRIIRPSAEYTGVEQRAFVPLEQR

Row | SMILES | DTNB (TNB release) spectrophotometric assay, 412 nm [1] | X-ray crystallography [2]
1 | CC(=O)SCCNC(=O)CCNC(=O)[C@H](O)C(C)(C)COP(=O)(O)OP(=O)(O)OC[C@H]1O[C@@H](n2cnc3c(N)ncnc32)[C@H](O)[C@@H]1OP(=O)(O)O [acetyl-CoA] | Purified GltAPa is a citrate synthase with no detectable 2-methylcitrate synthase activity. | 
2 | O=C(O)CC(=O)C(=O)O [oxaloacetate] |  | Crystal structure of oxaloacetate-bound PrpCPa represented in cartoon (PDB: 6S87).
